# Data published in publication PMC6256112, “Cannabinoid Receptor 2 Signalling Bias Elicited by 2,4,6-Trisubstituted 1,3,5-Triazines” (Frontiers in Pharmacology, 2018).
# Like-named read-outs stand apart in the source and are kept apart here. Marks after values point to notes of the source that are not given here.
# Key:
# [1] = target: T1, hCB2 (Homo sapiens, UniProt P34972); assay: Radioligand competition binding with [3H]-CP 55,940 on hCB2-expressing HEK membranes; settings: for hCB2 displacement of [3H]-CP 55,940 in 10 μM screen (in words): 10 μM heterologous competition screen, cut-off 60%; for inhibition at 10 µM: 1 h, read-out: CB2 binding extent at 10 μM (%) (±SEM); for Reduction in hCB2 binding affinity compared to 15: compared to methylpiperazinyl-15
# T1 construct: expressed in transfected cells; host or cells: HEK Flp-in
# T1 sequence (P34972 whole entry): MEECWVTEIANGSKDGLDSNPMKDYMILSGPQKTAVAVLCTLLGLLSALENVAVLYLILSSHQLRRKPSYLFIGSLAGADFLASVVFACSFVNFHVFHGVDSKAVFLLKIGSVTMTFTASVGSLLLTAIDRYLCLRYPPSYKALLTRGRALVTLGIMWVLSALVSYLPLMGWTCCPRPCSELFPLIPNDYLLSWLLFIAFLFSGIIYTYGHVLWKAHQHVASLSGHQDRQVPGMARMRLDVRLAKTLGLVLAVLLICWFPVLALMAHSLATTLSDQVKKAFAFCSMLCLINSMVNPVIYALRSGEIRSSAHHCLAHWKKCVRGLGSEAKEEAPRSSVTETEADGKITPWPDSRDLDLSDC
# [2] = target: T2, hCB1 (Homo sapiens, UniProt P21554); assay: Radioligand competition binding screen with [3H]-CP 55,940 on hCB1-expressing HEK membranes; settings: for CB1 binding extent at 10 μM (%) (±SEM): 10 μM compound, displacement of 0.75 nM [3H]-CP 55,940; for CB2 selectivity over CB1 (in words): from CB1 binding at 10 μM versus CB2 affinity
# T2 construct: expressed in transfected cells; host or cells: HEK (membranes)
# T2 sequence (P21554 whole entry): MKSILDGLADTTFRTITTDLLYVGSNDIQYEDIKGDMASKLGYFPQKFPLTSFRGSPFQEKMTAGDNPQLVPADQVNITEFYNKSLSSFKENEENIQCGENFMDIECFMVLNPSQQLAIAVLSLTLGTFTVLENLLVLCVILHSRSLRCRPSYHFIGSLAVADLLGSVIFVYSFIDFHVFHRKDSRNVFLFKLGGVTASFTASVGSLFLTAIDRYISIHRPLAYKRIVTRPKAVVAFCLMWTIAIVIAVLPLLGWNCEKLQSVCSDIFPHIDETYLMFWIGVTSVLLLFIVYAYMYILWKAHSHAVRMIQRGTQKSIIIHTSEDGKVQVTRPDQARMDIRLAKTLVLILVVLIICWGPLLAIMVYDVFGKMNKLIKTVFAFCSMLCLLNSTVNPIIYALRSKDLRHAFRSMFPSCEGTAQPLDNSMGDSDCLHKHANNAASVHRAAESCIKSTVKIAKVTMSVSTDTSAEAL
# [3] = target: T1, hCB2; assay: hCB2 internalisation assay (immunocytochemistry of surface receptor), HEK Flp-in hCB2 cells; assay type: cell-based; design: Emax: dose or concentration left out as unconfirmed; settings: for logR [log(τ/KA)] (±SEM) Internalisation: operational model transduction ratio
# [4] = target: T1, hCB2; assay: pERK AlphaLISA assay, HEK Flp-in hCB2 cells; assay type: cell-based; settings: for logR [log(τ/KA)] (±SEM) pERK: operational model transduction ratio; for Time of maximal pERK response: time course experiment
# [5] = test system: HEK Flp-in wt cells; assay: CAMYEL cAMP assay in HEK Flp-in wt cells (non-hCB2-mediated effects); assay type: cell-based, human; settings: for Non-hCB2-mediated effects on cAMP (in words): HEK Flp-in wt
# [6] = target: T1, hCB2; assay: Comparison of efficacy/potency and operational-model bias analysis between hCB2 pathways, reference CP 55,940; assay type: cell-based; settings: for Internalisation – pERK Bias factor / cAMP – internalisation Bias factor / cAMP – pERK Bias factor: 10^ΔΔlogR; for Internalisation – pERK ΔΔlogR (±SEM) / cAMP – internalisation ΔΔlogR (±SEM) / cAMP – pERK ΔΔlogR (±SEM): relative to reference ligand CP 55,940
# [7] = target: T1, hCB2; assay: Real-time CAMYEL BRET cAMP assay, forskolin-stimulated HEK Flp-in hCB2 cells; assay type: cell-based; settings: for logR [log(τ/KA)] (±SEM) cAMP: operational model transduction ratio; for Emax: read-out: cAMP (5 min) Emax (±SEM)
# Experimental: Cellular cAMP levels were measured using a real-time BRET biosensor (CAMYEL) as previously described ([Cawston et al., 2013]). In brief, cells were seeded in 10 cm dishes one day prior to transfection. The medium was then replaced and cells transfected with 5 μg of pcDNA3L-His-CAMYEL (ATCC, Manassas, VA, United States) using linear PEI (MW 25 kDa; Polysciences, Warrington, PA, United States) with a DNA:PEI ratio of 1:6. Approximately 24 h after transfection, cells were trypsinised and re-plated in poly-D-lysine treated white 96-well plates (Corning), at a density of 5–6 × 10^4 cells per well. For experiments involving pertussis toxin (PTX; Sigma-Aldrich) pre-treatment, cells were seeded in half the usual volume of medium, and then ∼5 h later, 2× concentrated PTX or vehicle (50% glycerol, […] Tris–HCl pH 7.5, 10 mM glycine, 500 mM NaCl) were prepared in medium and added to the existing plating medium (giving rise to a final PTX concentration of 100 ng mL^-1). Approximately 24 h after plating (or 16–20 h after applying PTX/vehicle in experiments involving PTX treatment), cells were washed once with Hank’s Balanced Salt Solution (HBSS, Thermo Fisher Scientific, catalogue #14025-134), and then equilibrated for 30 min in HBSS supplemented with 1 mg mL^-1 BSA. Coelenterazine h (final concentration 5 μM; NanoLight Technologies, Pinetop, AZ, United States) was added to each well and incubated for 5 min. Forskolin was added (final concentration 5 μM) and incubated for 6 min (allowing enough time for the induced cAMP increase to plateau), prior to vehicle/drug addition. All drugs and reagents were prepared in HBSS supplemented with 1 mg mL^-1 BSA. SR 144528 was a generous gift from Roche (Basel, Switzerland).
# Assays were carried out in technical duplicate. Emissions were detected at 460 nm (Rluc) and 535 nm (YFP) with either a LUMIstar® Omega luminometer (BMG Labtech, Ortenberg, Germany) or CLARIOstar® (BMG Labtech). BRET ratios (535 nm emissions/460 nm emissions, where an increase in ratio corresponds to a decrease in cAMP) were normalised to pre-forskolin reads (i.e., with coelenterazine h present) to remove any variability present prior to addition of forskolin and drug/vehicle. A Lowess curve (GraphPad Prism) was fitted to individual technical replicates within an assay so that cAMP signalling data could be extrapolated from any time point as opposed to only those that were empirically measured (typically every 30–60 s). Data were normalised to matched vehicle (0%) and forskolin (100%) treatments, allowing compilation of data from independent experiments.
# [8] = 10 μM compound, displacement of 0.5 nM [3H]-CP 55,940
# [9] = read-out: Internalisation (1 h) Emax (±SEM)
molecule,measurement,setting,value
"CCOc1nc(NC23CC4CC(CC(C4)C2)C3)nc(N2CCN(CCCCCCN)CC2)n1 [Compound 12, N-(Adamantan-1-yl)-4-(4-(6-Aminohexyl)Piperazin-1-yl)-6-Ethoxy-1,3,5-Triazin-2-Amine]","hCB2 displacement of [3H]-CP 55,940 in 10 μM screen (in words)",[1],moderate binders
same,inhibition at 10 µM,[1]; [8],43.5%
"CCOc1nc(NC2CCCC2)nc(N2CCNCC2)n1 [Compound 2, N-cyclopentyl-4-ethoxy-6-(piperazin-1-yl)-1,3,5-triazin-2-amine]","hCB2 displacement of [3H]-CP 55,940 in 10 μM screen (in words)",[1],"failed to displace, or barely displaced"
same,inhibition at 10 µM,[1]; [8],5.8%
"CCOc1nc(NC2CCCC2)nc(N2CCN(CCCCCCN)CC2)n1 [Compound 5, 4-(4-(6-Aminohexyl)Piperazin-1-yl)-N-Cyclopentyl-6-Ethoxy-1,3,5-Triazin-2-Amine]","hCB2 displacement of [3H]-CP 55,940 in 10 μM screen (in words)",[1],"failed to displace, or barely displaced"
same,inhibition at 10 µM,[1]; [8],16.6%
"CCCCCCC(C)(C)c1ccc([C@@H]2C[C@H](O)CC[C@H]2CCCO)c(O)c1 [CP 55,940, reference compound]",CB1 binding extent at 10 μM (%) (±SEM),[2],100.0 (0.0) %
same,Starting surface hCB2 internalised,[3]; 1 h stimulation,~66%
same,logR [log(τ/KA)] (±SEM) Internalisation,[3],8.76 (0.1)
same,Emax,[3]; [9],-65.1%
same,pERK potency lower than that for cAMP,[4],approximately 0.5 log unit
same,pERK potency lower than affinity,[4]; EC50 versus Kd,~10 fold
same,logR [log(τ/KA)] (±SEM) pERK,[4],8.05 (0.03)
same,Time of maximal pERK response,[4],4 min
same,CB2 binding extent at 10 μM (%) (±SEM),[1]; [8],100.0 (0.0) %
same,Non-hCB2-mediated effects on cAMP (in words),[5],least pronounced non-hCB2 signalling profile
same,Internalisation – pERK Bias factor,"[6]; relative to CP 55,940",1.0
same,cAMP – internalisation Bias factor,"[6]; relative to CP 55,940",1.0
same,cAMP – pERK Bias factor,"[6]; relative to CP 55,940",1.0
same,Internalisation – pERK ΔΔlogR (±SEM),[6],–0.02 (0.11)
same,cAMP – internalisation ΔΔlogR (±SEM),[6],0.01 (0.10)
same,cAMP – pERK ΔΔlogR (±SEM),[6],0.00 (0.04)
same,logR [log(τ/KA)] (±SEM) cAMP,[7],8.52 (0.02)
same,cAMP potency lower than binding affinity,[7]; pEC50 versus pKd,~0.4 log units
same,Emax,[7],-41.7%
"CCOc1nc(NC23CC4CC(CC(C4)C2)C3)nc(N2CCN(CCOCCOCCN)CC2)n1 [Compound 13, N-(Adamantan-1-yl)-4-(4-(2-(2-(2-Aminoethoxy) Ethoxy)Ethyl)Piperazin-1-yl)-6-Ethoxy-1,3,5-Triazin-2-Amine]",CB1 binding extent at 10 μM (%) (±SEM),[2],29.6 (7.6) %
same,CB2 selectivity over CB1 (in words),[2],likely also CB2-selective
same,Behaviour in internalisation pathway (in words),[3]; 1 h stimulation,neutral antagonist
same,Internalisation (1 h) pEC50 (±SEM),[3]; 1 h stimulation,Not Measurable
same,Emax at 10 µM,"[3]; read-out: Internalisation (1 h) Emax (±SEM), 1 h stimulation, change in surface hCB2 relative to vehicle-treated (100%), for 13 efficacy at 10 μM",6.2%
same,Behaviour in pERK pathway (in words),[4]; 4 min,weak partial agonists
same,EC50,"[4]; 4 min stimulation, 14 approximate (low potency), read-out: pERK (4 min) pEC50 (±SEM) (converted)",0.537 µM
same,Time of maximal pERK response,[4],4 min
same,inhibition at 10 µM,[1]; [8],81.1%
same,Reduction in hCB2 binding affinity compared to 15,[1],2–3 log units
same,Ki,"[1]; heterologous competition vs [3H]-CP 55,940, read-out: CB2 pKi (±SEM) (converted)",1.82 µM
same,Non-hCB2-mediated effects on cAMP (in words),[5],did not exhibit any measurable non-hCB2-mediated effects
same,Behaviour in cAMP pathway (in words),[7]; 5 μM forskolin,unconventional transient inverse agonist
same,Time to maximum cAMP effect after drug addition,[7]; 5 μM forskolin,~4 min
same,Time to return to cAMP concentration induced by forskolin alone,[7]; 5 μM forskolin,10 to 15 min
same,EC50,"[7]; 5 min post-drug, 5 μM forskolin, 10 and 14 approximate (non-hCB2-mediated effects), read-out: cAMP (5 min) pEC50 (±SEM) (converted)",0.794 µM
same,PTX sensitivity of cAMP signal (in words),[7]; PTX 100 ng mL-1 pre-treatment 16–20 h,completely PTX-sensitive
"CCOc1nc(NC23CC4CC(CC(C4)C2)C3)nc(N2CCN(CCOCCOCCNC(C)=O)CC2)n1 [Compound 14, N-(2-(2-(2-(4-(4-((Adamantan-1-yl)Amino)-6-Ethoxy-1,3,5-Triazin-2-yl)Piperazin-1-yl)Ethoxy)Ethoxy) Ethyl)Acetamide]",CB1 binding extent at 10 μM (%) (±SEM),[2],–18.8 (11.4) %
same,CB2 selectivity over CB1 (in words),[2],likely also CB2-selective
same,EC50,[3],0.174 µM
same,logR [log(τ/KA)] (±SEM) Internalisation,[3],6.81 (0.23)
same,Emax,[3]; [9],-61.8%
same,EC50,[4],7.41 µM
same,logR [log(τ/KA)] (±SEM) pERK,[4],5.16 (0.09)
same,Emax,[4]; read-out: pERK (4 min) Emax (±SEM),4.66%
same,Time of maximal pERK response,[4],4 min
same,Ki,[1],1.78 µM
same,inhibition at 10 µM,[1],76.2%
same,Reduction in hCB2 binding affinity compared to 15,[1],2–3 log units
same,Non-hCB2-mediated cAMP effects: fold less potent than cAMP inhibition in hCB2-expressing cells,[5]; HEK Flp-in wt versus HEK Flp-in hCB2,~5 fold
same,Internalisation – pERK Bias factor,"[6]; relative to CP 55,940",8.6
same,cAMP – internalisation Bias factor,"[6]; relative to CP 55,940",0.2
same,cAMP – pERK Bias factor,"[6]; relative to CP 55,940",1.6
same,Between-pathway signalling bias (in words),"[6]; relative to CP 55,940",biased towards internalisation
same,Internalisation – pERK ΔΔlogR (±SEM),[6],0.93 (0.13)**
same,cAMP – internalisation ΔΔlogR (±SEM),[6],–0.73 (0.25)*
same,cAMP – pERK ΔΔlogR (±SEM),[6],0.20 (0.25)
same,EC50,[7],0.955 µM
same,Behaviour in cAMP pathway (in words),[7]; 5 μM forskolin,partial agonists
same,logR [log(τ/KA)] (±SEM) cAMP,[7],5.83 (0.23)
same,Emax,[7],-29.8%
"CCOc1nc(NC23CC4CC(CC(C4)C2)C3)nc(N2CCN(CCN)CC2)n1 [Compound 11, N-(Adamantan-1-yl)-4-(4-(2-Aminoethyl)Piperazin-1-yl)-6-Ethoxy-1,3,5-Triazin-2-Amine]","hCB2 displacement of [3H]-CP 55,940 in 10 μM screen (in words)",[1],moderate binders
same,inhibition at 10 µM,[1]; [8],40.1%
"CCOc1nc(NC2CCCC2)nc(N2CCN(CCOCCOCCN)CC2)n1 [Compound 6, 4-(4-(2-(2-(2-Aminoethoxy)Ethoxy)Ethyl)Piperazin-1-yl)-N-Cyclopentyl-6-Ethoxy-1,3,5-Triazin-2-Amine]","hCB2 displacement of [3H]-CP 55,940 in 10 μM screen (in words)",[1],"failed to displace, or barely displaced"
same,inhibition at 10 µM,[1]; [8],15.6%
SR 144528 [reference compound],Non-hCB2-mediated effects on cAMP (in words),[5],did not exhibit any measurable non-hCB2-mediated effects
same,PTX sensitivity of cAMP signal (in words),[7],PTX-sensitive
same,Time to maximum cAMP effect after drug addition,[7],approximately 6 min
same,cAMP (5 min) Emax (±SEM),[7],55.4%
"CCOc1nc(NC23CC4CC(CC(C4)C2)C3)nc(N2CCN(CCCCCCNC(=O)OC(C)(C)C)CC2)n1 [Compound 9, tert-Butyl N-(6(4-(4-(Adamantan-1-yl)Amino)-6-Ethoxy-1,3,5-Triazin-2-yl)Piperazin-1-yl)Hexyl) Carbamate]","hCB2 displacement of [3H]-CP 55,940 in 10 μM screen (in words)",[1],moderate binders
same,inhibition at 10 µM,[1]; [8],51.9%
"CCOc1nc(Cl)nc(NC2CCCC2)n1 [Compound 1, 4-Chloro-N-cyclopentyl-6-ethoxy-1,3,5-triazin-2-amine]","hCB2 displacement of [3H]-CP 55,940 in 10 μM screen (in words)",[1],"failed to displace, or barely displaced"
same,inhibition at 10 µM,[1]; [8],-8.1%
